The values below come from US7109197B2, “N-phenyl-4-(4-pyridyl)-2-pyrimidineamine derivatives” (Syngenta Crop Protection, Inc., priority 2000, dated 2006).

Common to all, as to assay type: in vivo
For assay [1], the system named is Pyrenophora teres (Helminthosporium). The assay is described as follows: Assay B-10: Effect against Pyrenophora teres (Helminthosporium)/barley (net blotch on barley). The note with it: Pyrenophora teres on barley cv. Regina; 0.02% active substance, spray. On the procedure:
Assay B-10: Effect Against Pyrenophora teres (Helminthosporium)/Barley (Net Blotch on Barley) 1 week old barley plants cv. Regina are treated with a formulated testcompound (0.02% active substance) in a spray chamber. Two days after application barley plants are inoculated by spraying a spore suspension (3×10^4 conidia/ml) on the test plants. After an incubation period of 2 days at 20° C. and 95% r.h. plants are kept for 2 days at 20° C. and 60% r.h. in a greenhouse. The disease incidence is assessed 4 days after inoculation.

Assay [2] relates to Botrytis cinerea. The experiment in a line: Assay B-8: Effect against Botrytis cinerea/tomato (Botrytis on tomatoes). The following applies: Botrytis cinerea on tomato cv. Roter Gnom; 0.02% active substance, spray. The protocol:
Assay B-8: Effect Against Botrytis cinerea/Tomato (Botrytis on Tomatoes) 4 week old tomato plants cv. Roter Gnom are treated with the formulated testcompound 0.02% active substance) in a spray chamber. Two days after application tomato plants are inoculated by spraying a spore suspension (1×10^5 conidia/ml) on the test plants. After an incubation period of 4 days at 20° C. and 95% r. h. in a greenhouse the disease incidence is assessed.

The next assay has as its system Septoria nodorum. The assay is described as follows: Assay B-12: Effect against Septoria nodorum/wheat (Septoria leaf spot on wheat). The following applies: Septoria nodorum on wheat cv. Arina; 0.02% active substance, spray. On the procedure:
Assay B-12: Effect Against Septoria nodorum/Wheat (Septoria Leaf Spot on Wheat) 1 week old wheat plants cv. Arina are treated with a formulated test compound (0.02% active substance) in a spray chamber. One day after application wheat plants are inoculated by spraying a spore suspension (5×10^5 conidia/ml) on the test plants. After an incubation period of 1 day at 20° C. and 95% r.h. plants are kept for 10 days at 20° C. and 60% r.h. in a greenhouse. The disease incidence is assessed 11 days after inoculation.

Assay [3] deals with Botrytis cinerea. The experiment in a line: Assay B-7: Botrytis cinerea/grape (Botrytis on grapes). The note with it: Botrytis cinerea on grape seedlings cv. Gutedel; 0.02% active substance, spray. The protocol: Assay B-7: Botrytis cinerea/Grape (Botrytis on Grapes) 5 week old grape seedlings cv. Gutedel are treated with the formulated testcompound (0.02% active substance) in a spray chamber. Two days after application grape plants are inoculated by spraying a spore suspension (1×10^6 conidia/ml) on the test plants. After an incubation period of 4 days at 21° C. and 95% r. h. in a greenhouse the disease incidence is assessed.

Turning to `CS(=O)(=O)O.Clc1cccc(Nc2nccc(-c3ccnc(NCCCn4ccnc4)c3)n2)c1` [Compound 49], in assay [1], the B10 activity result is listed as “+ (the activity observed in the corresponding test system is 70% or more)”. Further, the B8 activity result in the assay on Botrytis cinerea [2] is given as “+ (the activity observed in the corresponding test system is 70% or more)”. For the same molecule, the B12 activity result with Septoria nodorum is given as “+ (the activity observed in the corresponding test system is 70% or more)”. In the assay with Botrytis cinerea [3], the B7 activity entry is reported as “+ (the activity observed in the corresponding test system is 70% or more)”.

Consider `CCCC(COC(C)=O)Nc1cc(-c2ccnc(Nc3cccc(Cl)c3)n2)ccn1` (stereo not drawn) [Compound 53], for which, in the assay on Botrytis cinerea [2], the B8 activity entry is recorded as “+ (the activity observed in the corresponding test system is 70% or more)”.

Consider `Clc1cccc(Nc2nccc(-c3ccnc(NC4CCOC4)c3)n2)c1` (stereo not drawn) [Compound 2], for which the B10 activity entry in assay [1] is listed as “+ (the activity observed in the corresponding test system is 70% or more)”. For the same molecule, the B12 activity entry in the assay on Septoria nodorum is given as “+ (the activity observed in the corresponding test system is 70% or more)”.

As to `COC(CNc1cc(-c2ccnc(Nc3cccc(Cl)c3)n2)ccn1)OC` [Compound 87], the B10 activity result in assay [1] is on record as “+ (the activity observed in the corresponding test system is 70% or more)”. The B12 activity entry in the assay with Septoria nodorum is “+ (the activity observed in the corresponding test system is 70% or more)”.

As for `CO[Si](CCCNc1cc(-c2ccnc(Nc3cccc(Cl)c3)n2)ccn1)(OC)OC` [Compound 100], in the assay on Botrytis cinerea [2], the B8 activity entry is “+ (the activity observed in the corresponding test system is 70% or more)”.

Turning to `CC(O)CNc1cc(-c2ccnc(Nc3cccc(Cl)c3)n2)ccn1` (stereo not drawn) [Compound 76], in assay [1], the B10 activity entry is reported as “+ (the activity observed in the corresponding test system is 70% or more)”. For the same molecule, the B12 activity entry in the assay with Septoria nodorum is given as “+ (the activity observed in the corresponding test system is 70% or more)”.

Turning to `Clc1cccc(Nc2nccc(-c3ccnc(NCc4cccnc4)c3)n2)c1` [Compound 102], the B10 activity entry in assay [1] is “+ (the activity observed in the corresponding test system is 70% or more)”. In addition, in the assay with Botrytis cinerea [2], the B8 activity result is given as “+ (the activity observed in the corresponding test system is 70% or more)”.

In the case of `CC(CCn1ccnc1)Nc1cc(-c2ccnc(Nc3cccc(Cl)c3)n2)ccn1` (stereo not drawn) [Compound 16], the B10 activity result in assay [1] is given as “+ (the activity observed in the corresponding test system is 70% or more)”. The B8 activity result with Botrytis cinerea [2] was “+ (the activity observed in the corresponding test system is 70% or more)”. The B12 activity result with Septoria nodorum is reported as “+ (the activity observed in the corresponding test system is 70% or more)”.

For the molecule `CCN(COC)c1cc(-c2ccnc(Nc3cccc(Cl)c3)n2)ccn1` [Compound 98], the B10 activity entry in assay [1] is on record as “+ (the activity observed in the corresponding test system is 70% or more)”.

As to `Clc1cccc(Nc2nccc(-c3ccnc(NCc4ccccn4)c3)n2)c1` [Compound 79], the B10 activity entry in assay [1] is on record as “+ (the activity observed in the corresponding test system is 70% or more)”. The B8 activity entry in the assay with Botrytis cinerea [2] is “+ (the activity observed in the corresponding test system is 70% or more)”.

For `COCN(C)c1cc(-c2ccnc(Nc3cccc(Cl)c3)n2)ccn1` [Compound 91], in assay [1], the B10 activity result is reported as “+ (the activity observed in the corresponding test system is 70% or more)”. Also, in the assay on Septoria nodorum, the B12 activity entry is “+ (the activity observed in the corresponding test system is 70% or more)”.

On to `C[S+]([O-])CCNc1cc(-c2ccnc(Nc3cccc(Cl)c3)n2)ccn1` (stereo not drawn) [Compound 74], for which the B12 activity result in the assay with Septoria nodorum is given as “+ (the activity observed in the corresponding test system is 70% or more)”.

Take `CC(CCc1ccccn1)Nc1cc(-c2ccnc(Nc3cccc(Cl)c3)n2)ccn1` (stereo not drawn) [Compound 71]: the B10 activity entry in assay [1] is reported as “+ (the activity observed in the corresponding test system is 70% or more)”. Further, the B12 activity entry in the assay on Septoria nodorum was “+ (the activity observed in the corresponding test system is 70% or more)”.

On to `Clc1cccc(Nc2nccc(-c3ccnc(NCc4ccco4)c3)n2)c1` [Compound 78], for which, in the assay with Botrytis cinerea [2], the B8 activity result is “+ (the activity observed in the corresponding test system is 70% or more)”.

Regarding `CS(=O)(=O)O.NCCCNc1cc(-c2ccnc(Nc3cccc(Cl)c3)n2)ccn1` [Compound 48], the B10 activity entry in assay [1] is given as “+ (the activity observed in the corresponding test system is 70% or more)”. Also, the B8 activity result with Botrytis cinerea [2] is given as “+ (the activity observed in the corresponding test system is 70% or more)”. Moreover, the B12 activity entry in the assay with Septoria nodorum is on record as “+ (the activity observed in the corresponding test system is 70% or more)”.

For `Clc1cccc(Nc2nccc(-c3ccnc(NCCCOc4ncccn4)c3)n2)c1` [Compound 94], the B10 activity result in assay [1] is reported as “+ (the activity observed in the corresponding test system is 70% or more)”. In the assay with Botrytis cinerea [2], the B8 activity result was “+ (the activity observed in the corresponding test system is 70% or more)”.

As for `NCCCNc1cc(-c2ccnc(Nc3cccc(Cl)c3)n2)ccn1` [Compound 42], the B10 activity result in assay [1] is “+ (the activity observed in the corresponding test system is 70% or more)”. Besides, the B8 activity result in the assay on Botrytis cinerea [2] is listed as “+ (the activity observed in the corresponding test system is 70% or more)”. In addition, in the assay on Septoria nodorum, the B12 activity result is “+ (the activity observed in the corresponding test system is 70% or more)”.

In the case of `CC(CCN(C)C)Nc1cc(-c2ccnc(Nc3cccc(Cl)c3)n2)ccn1` (stereo not drawn) [Compound 19], the B8 activity entry in the assay with Botrytis cinerea [2] is recorded as “+ (the activity observed in the corresponding test system is 70% or more)”.

For the molecule `Clc1cccc(Nc2nccc(-c3ccnc(NCC4CCOC4)c3)n2)c1` (stereo not drawn) [Compound 84], in assay [1], the B10 activity entry was “+ (the activity observed in the corresponding test system is 70% or more)”. Besides, in the assay on Botrytis cinerea [2], the B8 activity result is “+ (the activity observed in the corresponding test system is 70% or more)”. Besides, in the assay on Septoria nodorum, the B12 activity entry was “+ (the activity observed in the corresponding test system is 70% or more)”.

For `O=C(Nc1cc(-c2ccnc(Nc3cccc(Cl)c3)n2)ccn1)C(F)(F)C(F)(F)F` [Compound 93], the B10 activity result in assay [1] is listed as “+ (the activity observed in the corresponding test system is 70% or more)”. Further, in the assay on Botrytis cinerea [2], the B8 activity entry was “+ (the activity observed in the corresponding test system is 70% or more)”. For the same molecule, the B7 activity result in the assay with Botrytis cinerea [3] is reported as “+ (the activity observed in the corresponding test system is 70% or more)”.

Consider `CCC(COC(C)=O)Nc1cc(-c2ccnc(Nc3cccc(Cl)c3)n2)ccn1` (stereo not drawn) [Compound 51], for which the B10 activity result in assay [1] is recorded as “+ (the activity observed in the corresponding test system is 70% or more)”. For the same molecule, the B12 activity result in the assay with Septoria nodorum is “+ (the activity observed in the corresponding test system is 70% or more)”.

With `O=C(O)CNc1cc(-c2ccnc(Nc3cccc(Cl)c3)n2)ccn1` [Compound 3], the B10 activity entry in assay [1] was “+ (the activity observed in the corresponding test system is 70% or more)”. Besides, the B8 activity entry with Botrytis cinerea [2] is reported as “+ (the activity observed in the corresponding test system is 70% or more)”. In the assay on Septoria nodorum, the B12 activity result is “+ (the activity observed in the corresponding test system is 70% or more)”.

`CCC(=O)OCCCNc1cc(-c2ccnc(Nc3cccc(Cl)c3)n2)ccn1` [Compound 106]: the B10 activity result in assay [1] is “+ (the activity observed in the corresponding test system is 70% or more)”. The B8 activity entry with Botrytis cinerea [2] is “+ (the activity observed in the corresponding test system is 70% or more)”. For the same molecule, the B12 activity entry in the assay with Septoria nodorum is listed as “+ (the activity observed in the corresponding test system is 70% or more)”.

In the case of `CCCCC(=O)Nc1cc(-c2ccnc(Nc3cccc(Cl)c3)n2)ccn1` [Compound 62], in assay [1], the B10 activity entry is listed as “+ (the activity observed in the corresponding test system is 70% or more)”. For the same molecule, the B12 activity result with Septoria nodorum was “+ (the activity observed in the corresponding test system is 70% or more)”.

Turning to `NCCNc1cc(-c2ccnc(Nc3cccc(Cl)c3)n2)ccn1` [Compound 1], in assay [1], the B10 activity result is on record as “+ (the activity observed in the corresponding test system is 70% or more)”.

Turning to `CC(=O)OCCNc1cc(-c2ccnc(Nc3cccc(Cl)c3)n2)ccn1` [Compound 52], the B10 activity entry in assay [1] is given as “+ (the activity observed in the corresponding test system is 70% or more)”. For the same molecule, the B12 activity result with Septoria nodorum was “+ (the activity observed in the corresponding test system is 70% or more)”.

With `CC(CCNc1cc(-c2ccnc(Nc3cccc(Cl)c3)n2)ccn1)n1ccnc1` (stereo not drawn) [Compound 36], the B10 activity result in assay [1] is recorded as “+ (the activity observed in the corresponding test system is 70% or more)”.

In the case of `Clc1cccc(Nc2nccc(-c3ccnc(NCCc4ccccn4)c3)n2)c1` [Compound 90], in assay [1], the B10 activity result was “+ (the activity observed in the corresponding test system is 70% or more)”. Besides, in the assay with Botrytis cinerea [2], the B8 activity result is reported as “+ (the activity observed in the corresponding test system is 70% or more)”.

In the case of `CN(C)C=Nc1cc(-c2ccnc(Nc3cccc(Cl)c3)n2)ccn1` [Compound 97], the B10 activity entry in assay [1] is recorded as “+ (the activity observed in the corresponding test system is 70% or more)”. Also, the B8 activity result with Botrytis cinerea [2] is reported as “+ (the activity observed in the corresponding test system is 70% or more)”. The B12 activity result in the assay on Septoria nodorum is on record as “+ (the activity observed in the corresponding test system is 70% or more)”.
